Measurements as given in patent US9464075B2 (priority 2008, dated 2016).
Read-outs that look alike come from different tables or passages of the source.

Assays:
[1] = molecular target: A/M2 channels (Influenza virus A/Udorn/72 A/M2 protein) (Influenza A virus, UniProt P0DOF5); experiment: cell-based; details: for activity at 100 µM: read-out: AM2 channel activity after 100 μM compound inhibition
A/M2TM (22-46) = A/M2TM (22-46) (Influenza A virus, UniProt P0DOF5); experiment: biochemical; type: binding
A/M2TM (22-46), sequence (P0DOF5 22-46 limits assumed): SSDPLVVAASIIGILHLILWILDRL

AM2 = AM2 (Influenza A virus, UniProt P0DOF5); experiment: cell-based; details: read-out: AM2 % inhibition at 100 μM
AM2, sequence (P0DOF5 whole entry): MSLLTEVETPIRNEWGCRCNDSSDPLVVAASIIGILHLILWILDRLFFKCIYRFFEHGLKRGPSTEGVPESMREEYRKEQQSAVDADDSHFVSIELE

A/M2 channels (Influenza virus A/Udorn/72 A/M2 protein), sequence (P0DOF5 whole entry, looked up): as the sequence (P0DOF5 whole entry) above

SMILES	activity at 100 µM [1] [%]	inhibition at 100 µM (AM2) [%]	further results
NC12CC3CC(CC(C3)C1)C2 [Amantadine, reference compound]	6		
C1CCC2(CC1)CCN(C1=NCCN1)CC2 [BL-1743, 3-(4,5-Dihydro-1H-imidazol-2-yl)-3-aza-spiro[5.5]undecane, reference compound]	25		IC50 [1]: 45.3 ± 3.92 µM; Kd (A/M2TM (22-46)): 194 µM
Cl.NC1CCC2(CCCCC2)CC1 [Compound 8]			AM2 channel activity after 100 μM compound inhibition [1]: 11%
c1nc(NC2CCC3(CCCCC3)CC2)n[nH]1 [Compound 11, Spiro[5.5]undec-3-yl-(1H-[1,2,4]triazol-3-yl)-amine]	25		
NCCNC1CCC2(CCCCC2)CC1 [Compound 12, N^1-Spiro[5.5]undec-3-yl-ethane-1,2-diamine]	100		
NCCCNC1CCC2(CCCCC2)CC1 [Compound 13, N^1-Spiro[5.5]undec-3-yl-propane-1,3-diamine]	100		
c1nc(CNCCNC2CCC3(CCCCC3)CC2)c[nH]1 [Compound 14, N-(1H-Imidazol-4-ylmethyl)-N′-spiro[5.5]undec-3-yl-ethane-1,2-diamine]	91		
OC1(c2cnc[nH]2)CCC2(CCCCC2)CC1 [Compound 15]	40		
OC(c1c[nH]cn1)C1CCC2(CCCCC2)CC1 (stereo not shown) [Compound 18]	30		
C1CCC2(CC1)CCNCC2 [Compound 20, 3-Aza-spiro[5.5]undecane, reference compound]	5		IC50 [1]: 0.92 ± 0.11 µM; Kd (A/M2TM (22-46); read-out: Kd): 12.9 µM
NN1C(=O)CC2(CCCCC2)CC1=O [Compound 28, 3-Amino-3-aza-spiro[5.5]undecane-2,4-dione]		29	
NN1CCC2(CCCCC2)CC1 [Compound 29, 3-Aza-spiro[5.5]undec-3-yl-ammonium chloride]		86	
C1CCC2(CC1)CCCNCC2 [Compound 30, 9-Azonia-spiro[5.6]dodecane chloride]		94	
Cl.NNC1CCC2(CCCCC2)CC1 [Compound 31, N′-Spiro[5.5]undec-3-yl-hydrazinium chloride]		78.8	
CCC1(CC)CCc2nc(N)sc2C1 [Compound 32, 6,6-Diethyl-4,5,6,7-tetrahydro-benzothiazol-2-ylamine]		32	
Cl.NC1CSC2(CCCCC2)SC1 [Compound 33, 1,5-Dithia-spiro[5.5]undec-3-yl-ammonium chloride]		84.2	
NC1CSC2(CCCCCC2)SC1 [Compound 34, 1,5-Dithia-spiro[5.6]dodec-3-yl-ammonium chloride]		84.1	
N=C(N)NC1CCC2(CCCCC2)CC1 [Compound 35]		92	
